These results are taken from patent publication US8216800B2, “Substrates for detecting peptidase activity and methods using the substrates” (Biomerieux, priority 2007, dated 2012).

Molecules are shown by their SMILES.

Holding throughout (experiment): Peptidase activity detection on Columbia agar containing substrate
Holding throughout (format): cell-based

Data set [1] concerns Bacillus subtilis NCTC 9372. Also noted: key: − = no fluorescence detected; e = trace of fluorescence; +/− = weak fluorescence; + = medium fluorescence; ++ = strong fluorescence; NG = No Growth. As to conditions: substrate 100 mg/l, 24 hours at 37° C., UV 360-365 nm. As to the method: (§1) 40 mg of each substrate are dissolved in 4 ml of dimethylformamide (DMF). This solution is completely taken up in 400 ml of Columbia agar autoclaved beforehand and kept molten at 50° C. The final concentration for each substrate is therefore 100 mg/l. Each of the media is distributed into 90 mm Petri dishes in a proportion of 20 ml per dish.
(§2) 18 microorganism strains derived from collections and belonging to various species of bacteria and of yeasts are inoculated onto these media by semi-quantitative isolation of 10 μl of a suspension at 0.5 McFarland diluted to 1/20. The media are incubated for 24 hours at 37° C., and then the colonies formed are examined visually under UV illumination at 360-365 nm.

Data set [2] relates to Candida albicans ATCC 90028. On the set-up: key: − = no fluorescence detected; e = trace of fluorescence; +/− = weak fluorescence; + = medium fluorescence; ++ = strong fluorescence; NG = No Growth. As to conditions: substrate 100 mg/l, 24 hours at 37° C., UV 360-365 nm. As to the method:
as §1, §2

The subject of data set [3] is Candida glabrata NCPF3943. Also noted: key: − = no fluorescence detected; e = trace of fluorescence; +/− = weak fluorescence; + = medium fluorescence; ++ = strong fluorescence; NG = No Growth. As to conditions: substrate 100 mg/l, 24 hours at 37° C., UV 360-365 nm. The method, then: as §1, §2
Data set [4] relates to Citrobacter freundii 46262 (wild). Also noted: key: − = no fluorescence detected; e = trace of fluorescence; +/− = weak fluorescence; + = medium fluorescence; ++ = strong fluorescence; NG = No Growth. As to conditions: substrate 100 mg/l, 24 hours at 37° C., UV 360-365 nm. As to the method: as §1, §2
Data set [5] relates to Enterobacter cloacae NCTC 11936. Also noted: key: − = no fluorescence detected; e = trace of fluorescence; +/− = weak fluorescence; + = medium fluorescence; ++ = strong fluorescence; NG = No Growth. The note with it: substrate 100 mg/l, 24 hours at 37° C., UV 360-365 nm. The method, then: as §1, §2
In data set [6] the test system is Enterococcus faecalis NCTC 775. On the set-up: key: − = no fluorescence detected; e = trace of fluorescence; +/− = weak fluorescence; + = medium fluorescence; ++ = strong fluorescence; NG = No Growth. As to conditions: substrate 100 mg/l, 24 hours at 37° C., UV 360-365 nm. The method, then:
as §1, §2

The test system of data set [7] is Enterococcus faecium NCTC 7171. Also noted: key: − = no fluorescence detected; e = trace of fluorescence; +/− = weak fluorescence; + = medium fluorescence; ++ = strong fluorescence; NG = No Growth. The note with it: Enterococcus faecium NCTC 7171 (Table 3); substrate 100 mg/l, 24 hours at 37° C., UV 360-365 nm. As to the method: as §1, §2
The subject of data set [8] is Escherichia coli NCTC 10418. On the set-up: key: − = no fluorescence detected; e = trace of fluorescence; +/− = weak fluorescence; + = medium fluorescence; ++ = strong fluorescence; NG = No Growth. The note with it: substrate 100 mg/l, 24 hours at 37° C., UV 360-365 nm. As to the method:
as §1, §2

In data set [9] the test system is Listeria monocytogenes NCTC 11994. Also noted: key: − = no fluorescence detected; e = trace of fluorescence; +/− = weak fluorescence; + = medium fluorescence; ++ = strong fluorescence; NG = No Growth. As to conditions: substrate 100 mg/l, 24 hours at 37° C., UV 360-365 nm. As to the method:
as §1, §2

Data set [10] relates to Morganella morganii 462403 (wild). Also noted: key: − = no fluorescence detected; e = trace of fluorescence; +/− = weak fluorescence; + = medium fluorescence; ++ = strong fluorescence; NG = No Growth. The note with it: substrate 100 mg/l, 24 hours at 37° C., UV 360-365 nm. As to the method:
as §1, §2

In data set [11] the test system is Providencia rettgeri NCTC 7475. On the set-up: key: − = no fluorescence detected; e = trace of fluorescence; +/− = weak fluorescence; + = medium fluorescence; ++ = strong fluorescence; NG = No Growth. As to conditions: substrate 100 mg/l, 24 hours at 37° C., UV 360-365 nm. The method, then:
as §1, §2

In data set [12] the test system is Salmonella Typhimurium NCTC 74. On the set-up: key: − = no fluorescence detected; e = trace of fluorescence; +/− = weak fluorescence; + = medium fluorescence; ++ = strong fluorescence; NG = No Growth. The note with it: substrate 100 mg/l, 24 hours at 37° C., UV 360-365 nm. The method, then: as §1, §2
Data set [13] relates to Serratia marcescens NCTC 10211. On the set-up: key: − = no fluorescence detected; e = trace of fluorescence; +/− = weak fluorescence; + = medium fluorescence; ++ = strong fluorescence; NG = No Growth. The note with it: substrate 100 mg/l, 24 hours at 37° C., UV 360-365 nm. The method, then:
as §1, §2

Data set [14] deals with Staphylococcus aureus NCTC 11939. On the set-up: key: − = no fluorescence detected; e = trace of fluorescence; +/− = weak fluorescence; + = medium fluorescence; ++ = strong fluorescence; NG = No Growth. The note with it: Staphylococcus aureus (MRSA) NCTC 11939; substrate 100 mg/l, 24 hours at 37° C., UV 360-365 nm. As to the method: as §1, §2
Data set [15] deals with Staphylococcus aureus NCTC 6571. On the set-up: key: − = no fluorescence detected; e = trace of fluorescence; +/− = weak fluorescence; + = medium fluorescence; ++ = strong fluorescence; NG = No Growth. As to conditions: substrate 100 mg/l, 24 hours at 37° C., UV 360-365 nm. As to the method: as §1, §2
For data set [16], the system named is Staphylococcus epidermidis NCTC 11047. On the set-up: key: − = no fluorescence detected; e = trace of fluorescence; +/− = weak fluorescence; + = medium fluorescence; ++ = strong fluorescence; NG = No Growth. The note with it: substrate 100 mg/l, 24 hours at 37° C., UV 360-365 nm. The method, then:
as §1, §2

In data set [17] the test system is Streptococcus pyogenes NCTC 8306. On the set-up: key: − = no fluorescence detected; e = trace of fluorescence; +/− = weak fluorescence; + = medium fluorescence; ++ = strong fluorescence; NG = No Growth. The note with it: substrate 100 mg/l, 24 hours at 37° C., UV 360-365 nm. The method, then: as §1, §2
In data set [18] the test system is Yersinia enterocolitica NCTC 11176. Also noted: key: − = no fluorescence detected; e = trace of fluorescence; +/− = weak fluorescence; + = medium fluorescence; ++ = strong fluorescence; NG = No Growth. The note with it: substrate 100 mg/l, 24 hours at 37° C., UV 360-365 nm. The method, then:
as §1, §2

The subject of data set [19] is Burkholderia cepacia 1222. On the set-up: key to fluorescence intensity: − = no fluorescence detected; e = trace of fluorescence; +/− = weak fluorescence; + = medium fluorescence; ++ = strong fluorescence; NG = No Growth. As to conditions: Burkholderia cepacia 1222; substrate 100 mg/l, 24 hours at 37° C., UV 360-365 nm. The method, then: as §1, §2
In data set [20] the test system is Pseudomonas aeruginosa NCTC 10662. On the set-up: key to fluorescence intensity: − = no fluorescence detected; e = trace of fluorescence; +/− = weak fluorescence; + = medium fluorescence; ++ = strong fluorescence; NG = No Growth. As to conditions: Pseudomonas aeruginosa NCTC 10662; substrate 100 mg/l, 24 hours at 37° C., UV 360-365 nm. As to the method: as §1, §2

Data set [21] has as its system Enterococcus faecium NCTC 11047. Also noted: key: − = no fluorescence detected; e = trace of fluorescence; +/− = weak fluorescence; + = medium fluorescence; ++ = strong fluorescence; NG = No Growth. The note with it: Enterococcus faecium NCTC 11047 (Table 2); substrate 100 mg/l, 24 hours at 37° C., UV 360-365 nm. As to the method:
as §1, §2

In data set [22] the test system is Gram-negative bacterial strains. The note with it: all the Gram-negative bacterial strains with the exception of the Burkholderia cepacia strain. The method, then: as §1, §2
Data set [23] concerns Staphylococcus aureus strains. As to conditions: the two Staphylococcus aureus strains. The method, then:
as §1, §2

For data set [24], the system named is enterococcal strains. The note with it: the two enterococcal strains. The method, then:
as §1, §2

In data set [25] the test system is Gram-positive bacterial strains and the yeasts. The note with it: all the Gram-positive bacterial strains and the yeasts. As to the method:
as §1, §2

For the compound `C[C@H](N)C(=O)Nc1cc2c(cc1-c1nc3ccccc3n1CCc1ccccc1)OCO2` [Substrate 16], the fluorescence intensity result in [1] is given as “−”; in data set [2] it was “−”; in data set [3], “−”; in data set [4] it was “++”; in data set [5], “++”; in [6], “−”. The fluorescence intensity entry in [7] was “−”; in data set [8] it was “++”; in data set [9] it was “−”; in [10] it was “+”; in data set [11] it was “++”; in data set [12], “++”. Also, the fluorescence intensity entry in data set [13] was “++”; in data set [14], “−”; in data set [15], “−”; in data set [16] it was “−”; in [17] it was “−”; in [18], “−”. Also, the fluorescence intensity entry is listed as “++” in data set [19] and “−” in data set [20].

Take `C[C@H](N)C(=O)Nc1ccccc1-c1nc2ccccc2o1` [Substrate 1]: the fluorescence intensity result is listed as “−” in [1]; “−” in data set [2]; “−” in data set [3]; “++” in [5]; “+/−” in [6]; “+/−” in data set [21]. Also, the fluorescence intensity entry in data set [8] is recorded as “++^1”; in [9] it was “+/−”; in data set [11] it was “++”; in data set [12] it was “++”; in data set [13] it was “++”; in [14], “+”. Also, the fluorescence intensity entry in [15] is on record as “+”; in data set [16] it was “−”; in [17] it was “−”; in data set [18], “++”; in data set [19] it was “−”; in [20], “++”. In addition, the figures for the “fluorescence produced” value in data set [22], in data set [23] and in data set [24] were “strong blue fluorescence”, “medium green fluorescence” and “weak blue fluorescence”, respectively.

Consider `C[C@H](N)C(=O)Nc1ccccc1-c1nc2ccccc2n1CCc1ccccc1` [Substrate 14], for which the fluorescence intensity entry in data set [1] is recorded as “−”; in data set [2] it was “−”; in data set [3], “−”; in data set [4], “−”; in [5], “+/−”; in [6], “−”. The fluorescence intensity entry in data set [7], in data set [8], in [9], in data set [10], in [11] and in [12] was “−” each time. Besides, the fluorescence intensity entry is listed as “+/−” in data set [13]; “−” in data set [14]; “−” in data set [15]; “−” in [16]; “−” in data set [17]; “−” in [18]. Moreover, the fluorescence intensity entry in [19] and in data set [20] was “−” throughout.

Take `C[C@H](N)C(=O)Nc1ccccc1-c1nc2ccccc2s1` [Substrate 17]: the fluorescence intensity entry in data set [1] is recorded as “NG”; in data set [2], “NG”; in data set [3], “NG”; in data set [5] it was “+”; in data set [6], “NG”; in [21], “NG”. Besides, the fluorescence intensity entry in data set [8] is listed as “+”; in data set [9], “NG”; in [11], “+”; in [12] it was “NG”; in data set [13], “+”; in [14], “NG”. Further, the fluorescence intensity result in [15] is given as “NG”; in [16] it was “NG”; in data set [17], “NG”; in [18] it was “+”; in data set [19], “+”; in data set [20] it was “+”. Besides, the “toxicity (growth inhibition, text)” value in data set [25] is listed as “inhibited”.
